Columns and labels:
human P2X7 = molecular target: T1, human P2X7 (Homo sapiens, UniProt Q99572); assay: Intracellular Calcium Flux (FLIPR) Assay; format: cell-based; conditions: 1321N1 cells stably expressing full length human P2X7; agonist 100 μM BzATP; fluo-3 calcium flux; read-out: FLIPR pIC50 hP2X7-1321n1 (converted)
T1 construct: 1321N1 cells stably expressing the full length human P2X7 gene (1321N1-hP2X7)
T1 sequence (Q99572 1-595): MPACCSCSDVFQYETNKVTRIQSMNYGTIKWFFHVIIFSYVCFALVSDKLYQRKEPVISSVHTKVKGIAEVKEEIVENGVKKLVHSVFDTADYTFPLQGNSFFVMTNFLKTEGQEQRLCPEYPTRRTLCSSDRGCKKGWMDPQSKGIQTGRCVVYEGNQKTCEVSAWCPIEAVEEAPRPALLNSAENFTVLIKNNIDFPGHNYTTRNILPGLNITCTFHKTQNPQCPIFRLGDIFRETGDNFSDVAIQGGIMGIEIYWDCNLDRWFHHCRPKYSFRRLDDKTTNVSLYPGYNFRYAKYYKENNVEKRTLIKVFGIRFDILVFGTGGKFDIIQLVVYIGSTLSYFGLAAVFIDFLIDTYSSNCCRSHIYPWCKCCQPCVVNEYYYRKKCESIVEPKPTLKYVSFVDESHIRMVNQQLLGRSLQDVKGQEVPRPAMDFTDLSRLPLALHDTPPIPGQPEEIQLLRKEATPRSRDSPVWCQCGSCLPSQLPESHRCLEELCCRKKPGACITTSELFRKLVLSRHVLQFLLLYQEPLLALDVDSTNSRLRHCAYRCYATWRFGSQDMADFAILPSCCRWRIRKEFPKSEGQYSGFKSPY
Description: Stock solutions of compounds were prepared from powders as a 10 mM DMSO stock solution. These solutions were stored at RT during the two week period of these experiments to prevent freeze-thaw of the DMSO stocks. The DMSO stocks were added to the appropriate assay buffer at a concentration of 10 μM, and then diluted serially to the final concentrations that were tested. No observable precipitate was formed at any time during this process. The aqueous solutions of compounds as well as ATP (Sigma A7699) and BzATP (Sigma B6396) were prepared fresh for each day of experiment.
1321N1 cells stably expressing the full length human P2X7 gene (1321N1-hP2X7) and HEK293 cells stably expressing the full length rat P2X7 gene (HEK293-rP2X7) were obtained from the Roche Cell Culture Facility. 1321N1-hP2X7 cells were grown in Dulbecco's Modified Eagle's Medium (DMEM) high glucose supplemented with 10% FBS and 250 μg/mL G418. HEK293-rP2X7 cells were grown in DMEM/F-12 supplemented with 10% FBS, 1 mM CaCl2, 2 mM MgCl2, 2 mM L-Glutamine and 500 μg/ml G418. Cells were split such that they never became >70% confluent.
On the day prior to the experiment, 1321N1-hP2X7 or HEK293-rP2X7 cells were released into suspension with calcium-free PBS+Versene and washed by centrifugation with calcium-free PBS to remove the Versene. Cells were resuspended in growth medium at a density of 2.5×10^5 cells/mL and seeded into black walled, clear bottom 96 well plates (50,000 cells/well) approximately 18 hr prior to intracellular calcium flux experiments.
On the day of the experiment, plates were washed with FLIPR buffer (calcium- and magnesium-free Hank's Balanced Salt Solution (HBSS) supplemented with 10 mM Hepes, 2.5 mM probenecid and 2 mM calcium chloride) using a BIO-TEK 96 channel plate washer and incubated with […] fluo-3 dye at 37° C. for one hr. The dye was then removed by plate washing and the cells were allowed to equilibrate for 20 min at room temperature with antagonist or vehicle (FLIPR buffer). Agonist (100 μM BzATP final concentration for hP2X7; 5 μM BzATP final concentration or rP2X7) was added online with the FLIPR and fluorescence measurements made at 1 sec intervals for 60 sec followed by 3 sec intervals for a further 4 min (5 min total). A final addition of 5 μM ionomycin was made and the maximal BzATP-evoked fluorescence normalized to the maximal ionomycin-evoked fluorescence.

Compound	IC50 (human P2X7)	melting point
CS(=O)(=O)c1ccc(C(Cc2ccc(F)cc2)C(=O)Nc2nc3ccccc3o2)cc1 (stereo not shown) [Compound I-7, N-Benzooxazol-2-yl-3-(4-fluoro-phenyl)-2-(4-methanesulfonyl-phenyl)-propionamide]	0.0631 µM	109 to 110 °C
CSc1cnc(NC(=O)C(Cc2ccc(F)cc2)c2ccc(S(C)(=O)=O)cc2)cn1 (stereo not shown) [Compound I-14, 3-(4-Fluoro-phenyl)-2-(4-methanesulfonyl-phenyl)-N-(5-methylsulfanyl-pyrazin-2-yl)-propionamide]	1.12 µM	187.7 to 188.4 °C
CS(=O)(=O)c1cccc(C(Cc2ccc(F)cc2)C(=O)Nc2nc3ccccc3o2)c1 (stereo not shown) [Compound I-12, N-Benzooxazol-2-yl-3-(4-fluoro-phenyl)-2-(3-methanesulfonyl-phenyl)-propionamide]	0.741 µM	99 to 100 °C
COc1ccc(CC(C(=O)Nc2nc3ccccc3o2)c2ccc(S(C)(=O)=O)cc2)cc1 (stereo not shown) [Compound I-9, N-Benzooxazol-2-yl-2-(4-methanesulfonyl-phenyl)-3-(4-methoxy-phenyl)-propionamide]	0.229 µM	101.9 to 105.9 °C
Cc1ccccc1CC(C(=O)Nc1nc2cc(Cl)ccc2o1)c1ccc(S(C)(=O)=O)cc1 (stereo not shown) [Compound I-3, N-(5-Chloro-benzooxazol-2-yl)-2-(4-methanesulfonyl-phenyl)-3-o-tolyl-propionamide]	1.17 µM	184 to 185 °C
CS(=O)(=O)c1ccc(C(Cc2ccc(F)cc2)C(=O)Nc2nc3ccc(CO)cc3o2)cc1 (stereo not shown) [Compound I-20, 3-(4-Fluoro-phenyl)-N-(6-hydroxymethyl-benzooxazol-2-yl)-2-(4-methanesulfonyl-phenyl)-propionamide]	0.0204 µM	128 to 130 °C
CS(=O)(=O)c1ccc(C(Cc2ccccc2)C(=O)Nc2nc3ccccc3o2)cc1 (stereo not shown) [Compound I-4, N-Benzooxazol-2-yl-2-(4-methanesulfonyl-phenyl)-3-phenyl-propionamide]	0.0813 µM	118 to 119 °C
CCOC(=O)c1cnc(NC(=O)C(Cc2ccc(F)cc2)c2ccc(S(C)(=O)=O)cc2)cn1 (stereo not shown) [Compound I-15, 5-[3-(4-Fluoro-phenyl)-2-(4-methanesulfonyl-phenyl)-propionylamino]-pyrazine-2-carboxylic acid ethyl ester]	0.224 µM	106 to 107 °C
CCOC(=O)c1ccc(C(Cc2ccc(F)cc2)C(=O)Nc2nc3ccccc3o2)cc1 (stereo not shown) [Compound I-30, 4-[1-(Benzooxazol-2-ylcarbamoyl)-2-(4-fluoro-phenyl)-ethyl]-benzoic acid ethyl ester]	0.457 µM	122 to 125 °C
CN(C)CCNC(=O)c1ccc(C(Cc2ccc(F)cc2)C(=O)Nc2nc3ccccc3o2)cc1 (stereo not shown) [Compound I-34, 4-[1-(Benzooxazol-2-ylcarbamoyl)-2-(4-fluoro-phenyl)-ethyl]-N-(2-dimethylamino-ethyl)-benzamide]	0.389 µM	149 to 151 °C
CS(=O)(=O)c1ccc(C(Cc2ccccc2F)C(=O)Nc2nc3ccccc3o2)cc1 (stereo not shown) [Compound I-8, N-Benzooxazol-2-yl-3-(2-fluoro-phenyl)-2-(4-methanesulfonyl-phenyl)-propionamide]	0.0871 µM	99 to 100 °C
NC(=O)c1ccc(C(Cc2ccc(F)cc2)C(=O)Nc2nc3ccccc3o2)cc1 (stereo not shown) [Compound I-32, 4-[1-(Benzooxazol-2-ylcarbamoyl)-2-(4-fluoro-phenyl)-ethyl]-benzamide]	0.0204 µM	137 to 139 °C
CS(=O)(=O)c1ccc(C(Cc2cccc(F)c2)C(=O)Nc2cnc(CO)cn2)cc1 (stereo not shown) [Compound I-26, 3-(3-Fluoro-phenyl)-N-(5-hydroxymethyl-pyrazin-2-yl)-2-(4-methanesulfonyl-phenyl)-propionamide]	0.339 µM	82.8 to 98.7 °C
CC(C)(O)c1ccc(C(Cc2ccc(F)cc2)C(=O)Nc2nc3ccccc3o2)cc1 (stereo not shown) [Compound I-31, N-Benzooxazol-2-yl-3-(4-fluoro-phenyl)-2-[4-(1-hydroxy-1-methyl-ethyl)-phenyl]-propionamide]	0.282 µM	87 to 90 °C
CS(=O)(=O)c1ccc(C(Cc2ccc(F)cc2)C(=O)Nc2nc3ncccc3o2)cc1 (stereo not shown) [Compound I-18, 3-(4-Fluoro-phenyl)-2-(4-methanesulfonyl-phenyl)-N-oxazolo[4,5-b]pyridin-2-yl-propionamide]	0.234 µM	261 to 263.7 °C
Cc1cnc(NC(=O)C(Cc2ccc(F)cc2)c2ccc(S(C)(=O)=O)cc2)cn1 (stereo not shown) [Compound I-19, 3-(4-Fluoro-phenyl)-2-(4-methanesulfonyl-phenyl)-N-(5-methyl-pyrazin-2-yl)-propionamide]	0.708 µM	172.4 to 175.3 °C
CS(=O)(=O)c1ccc(C(Cc2ccccc2Cl)C(=O)Nc2nc3ccccc3o2)cc1 (stereo not shown) [Compound I-5, N-Benzooxazol-2-yl-3-(2-chloro-phenyl)-2-(4-methanesulfonyl-phenyl)-propionamide]	0.537 µM	107 to 108 °C
Cc1ccccc1CC(C(=O)Nc1nc2ccccc2o1)c1ccc(S(C)(=O)=O)cc1 (stereo not shown) [Compound I-2, N-Benzooxazol-2-yl-2-(4-methanesulfonyl-phenyl)-3-o-tolyl-propionamide]	0.302 µM	105.7 to 108.9 °C
COCc1cnc(NC(=O)C(Cc2ccc(F)cc2)c2ccc(S(C)(=O)=O)cc2)cn1 (stereo not shown) [Compound I-21, 3-(4-Fluoro-phenyl)-2-(4-methanesulfonyl-phenyl)-N-(5-methoxymethyl-pyrazin-2-yl)-propionamide]	0.646 µM	69 to 82.3 °C
O=C(Nc1nc2ccccc2o1)C(Cc1ccc(F)cc1)c1ccc(F)cc1F (stereo not shown) [Compound I-29, N-Benzooxazol-2-yl-2-(2,4-difluoro-phenyl)-3-(4-fluoro-phenyl)-propionamide]	0.501 µM	177.5 to 177.9 °C
O=C(NCCO)c1ccc(C(Cc2ccc(F)cc2)C(=O)Nc2nc3ccccc3o2)cc1 (stereo not shown) [Compound I-33, 4-[1-(Benzooxazol-2-ylcarbamoyl)-2-(4-fluoro-phenyl)-ethyl]-N-(2-hydroxy-ethyl)-benzamide]	0.347 µM	134 to 136 °C
CS(=O)(=O)c1ccc(C(Cc2ccc(F)cc2)C(=O)Nc2nc3cnccc3o2)cc1 (stereo not shown) [Compound I-51, 3-(4-Fluoro-phenyl)-2-(4-methanesulfonyl-phenyl)-N-oxazolo[4,5-c]pyridin-2-yl-propionamide]	0.0316 µM	–
CS(=O)(=O)c1ccc(C(Cc2ccc(F)cc2)C(=O)Nc2nc3ccc(F)cc3o2)cc1 (stereo not shown) [Compound I-40, N-(6-Fluoro-benzooxazol-2-yl)-3-(4-fluoro-phenyl)-2-(4-methanesulfonyl-phenyl)-propionamide]	0.0389 µM	–
CS(=O)(=O)c1ccc(C(Cc2ccc(F)cc2)C(=O)Nc2cnc(CO)cn2)cc1 (stereo not shown) [Compound I-16, 3-(4-Fluoro-phenyl)-N-(5-hydroxymethyl-pyrazin-2-yl)-2-(4-methanesulfonyl-phenyl)-propionamide]	0.117 µM	–
Cc1cccc2oc(NC(=O)C(Cc3ccc(F)cc3)c3ccc(S(C)(=O)=O)cc3)nc12 (stereo not shown) [Compound I-35, 3-(4-Fluoro-phenyl)-2-(4-methanesulfonyl-phenyl)-N-(4-methyl-benzooxazol-2-yl)-propionamide]	0.468 µM	–
